Source: the supplement of paper PMC10627819

Experiments:
[1] = system: B. subtilis 168; test: fitness (endpoint OD595 vs no drug) (fraction); higher = more growth
Summary of the method: (§1)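 Fitness is computed from the optical density at which cultures reach stationary phase, divided by the robust mean of no-drug control wells. Any value above 1 is set to 1. Cultures started at OD595 0.01 in 384-well plates with TSB, LB Lennox or CY at 37 °C, and OD595 was read every 30 min for 14 h against a first-reading background.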

[2] = system: S. aureus Newman; test: as above; settings: one replicate
Summary of the method: as §1

[3] = system: B. subtilis 168; test: Bliss interaction score (quartile over a dose matrix) (fitness difference); higher = more antagonism (negative = synergy)
Summary of the method: (§2)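 Fitness here means normalised growth, inferred for single drugs from the combination data. Growth was OD595 at entry into stationary phase, divided by the plate's robust no-drug mean and capped at 1. The Bliss score is observed minus expected fitness, with the expectation being the product, and its quartiles span technical, biological and donor/recipient replicates.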

[4] = system: S. aureus DSM 20231; test: as above
Summary of the method: as §2

[5] = system: S. aureus Newman; test: as above
Summary of the method: as §2

[6] = system: S. pneumoniae D39V; test: as above
Summary of the method: as §2
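Wherever Bliss interaction score (quartile over a dose matrix) is given: first quartile when negative (synergy) and third quartile when positive (antagonism).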
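Wherever fitness (endpoint OD595 vs no drug) is given: OD595 on entry to stationary phase over no-drug wells; at most 1.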

CO/N=C(\C(=O)N[C@@H]1C(=O)N2C(C(=O)O)=C(COC(N)=O)CS[C@H]12)c1ccco1 [Cefuroxime] + C[n+]1ccc(-c2cc[n+](C)cc2)cc1 [Paraquat]
fitness
Settings	first compound 0.04875 µg/mL	first compound 0.0975 µg/mL	first compound 0.195 µg/mL
[1], partner 1.25 µg/mL	0.705	0.633	0.539
[1], partner 2.5 µg/mL	0.682	0.625	0.522
[1], partner 5 µg/mL	0.632	0.584	0.366
[2], partner 1.25 µg/mL	0.955	0.906	0.963
[2], partner 2.5 µg/mL	0.88	0.924	0.937
[2], partner 5 µg/mL	0.993	0.907	0.939

fitness, [1], one replicate
Settings	first compound 1.562 µg/mL	first compound 3.125 µg/mL	first compound 6.25 µg/mL
partner 1.25 µg/mL	0.224	0.144	0.0805
partner 2.5 µg/mL	0.179	0.131	0.0628
partner 5 µg/mL	0.147	0.0619	0.0182

Settings	Bliss interaction score
[3]	-0.0801
[4]	0.0764
[5]	-0.0456
[6]	-0.0322

CO/N=C(\C(=O)N[C@@H]1C(=O)N2C(C(=O)O)=C(COC(N)=O)CS[C@H]12)c1ccco1 [Cefuroxime] + COc1cccc2c1C(=O)c1c(O)c3c(c(O)c1C2=O)C[C@@](O)(C(=O)CO)C[C@@H]3O[C@H]1C[C@H](N)[C@H](O)[C@H](C)O1 [Doxorubicin]
fitness
Settings	first compound 0.04875 µg/mL	first compound 0.0975 µg/mL	first compound 0.195 µg/mL
[1], partner 0.625 µg/mL	0.667	0.575	0.343
[1], partner 1.25 µg/mL	0.63	0.528	0.288
[1], partner 2.5 µg/mL	0.371	0.293	0.025
[2], partner 0.625 µg/mL	0.891	0.873	0.784
[2], partner 1.25 µg/mL	0.854	0.753	0.682
[2], partner 2.5 µg/mL	0.735	0.617	0.659

fitness, [1], one replicate
Settings	first compound 0.39 µg/mL	first compound 0.78 µg/mL	first compound 1.562 µg/mL	first compound 3.125 µg/mL	first compound 6.25 µg/mL
partner 0.625 µg/mL	0.264	0.272	0.365	0.208	0.142
partner 1.25 µg/mL	0.25	0.17	0.0862	0.0711	0.0435
partner 2.5 µg/mL	0.018	0.0243	0.0327	0.0359	0.0405

Settings	Bliss interaction score
[3]	-0.158
[4]	0.0859
[5]	-0.0601
[6]	-0.0401

CO/N=C(\C(=O)N[C@@H]1C(=O)N2C(C(=O)O)=C(COC(N)=O)CS[C@H]12)c1ccco1 [Cefuroxime] + O=C(O[C@@H]1Cc2c(O)cc(O)cc2O[C@@H]1c1cc(O)c(O)c(O)c1)c1cc(O)c(O)c(O)c1 [EGCG]
fitness
Settings	first compound 0.04875 µg/mL	first compound 0.0975 µg/mL	first compound 0.195 µg/mL
[1], partner 6.25 µg/mL	0.74	0.667	0.438
[1], partner 12.5 µg/mL	0.376	0.493	0.506
[1], partner 25 µg/mL	0.249	0.219	0.17
[2], partner 12.5 µg/mL	0.885	0.801	0.879
[2], partner 25 µg/mL	0.767	0.773	0.756
[2], partner 50 µg/mL	0.688	0.617	0.561

fitness, [1], one replicate
Settings	first compound 0.39 µg/mL	first compound 0.78 µg/mL	first compound 1.562 µg/mL	first compound 3.125 µg/mL	first compound 6.25 µg/mL
partner 6.25 µg/mL	0.425	0.411	0.356	0.3	0.304
partner 12.5 µg/mL	0.461	0.436	0.195	0.236	0.279
partner 25 µg/mL	0.274	0.318	0.103	0.064	0.0477

Settings	Bliss interaction score
[3]	0.158
[4]	0.0989
[5]	0.0827
[6]	0.0461

CO/N=C(\C(=O)N[C@@H]1C(=O)N2C(C(=O)O)=C(COC(N)=O)CS[C@H]12)c1ccco1 [Cefuroxime] + CC1=C\[C@@H](O)CC(=O)Cc2nc(co2)C(=O)N2CCC=C2C(=O)O[C@H](C(C)C)[C@H](C)/C=C/C(=O)NC\C=C\1 [Virginiamycin M1]
fitness
Settings	partner 0.0625 µg/mL	partner 0.125 µg/mL	partner 0.25 µg/mL
[1], first compound 0.04875 µg/mL	–	0.76	–
[1], first compound 0.195 µg/mL	0.558	0.555	0.538
[2], first compound 0.04875 µg/mL	0.927	0.952	0.943
[2], first compound 0.0975 µg/mL	0.963	0.992	0.965
[2], first compound 0.195 µg/mL	0.89	0.944	0.893

fitness, [1], one replicate
Settings	first compound 1.562 µg/mL	first compound 3.125 µg/mL	first compound 6.25 µg/mL
partner 0.0625 µg/mL	0.334	0.259	0.239
partner 0.125 µg/mL	0.325	0.26	0.208
partner 0.25 µg/mL	0.309	0.217	0.182

Settings	Bliss interaction score
[3]	0.0564
[4]	0.103
[5]	-0.0495
[6]	-0.0415

CO/N=C(\C(=O)N[C@@H]1C(=O)N2C(C(=O)O)=C(COC(N)=O)CS[C@H]12)c1ccco1 [Cefuroxime] + COc1ccc(C[C@H](N)C(=O)N[C@H]2[C@@H](O)[C@H](n3cnc4c(N(C)C)ncnc43)O[C@@H]2CO)cc1 [Puromycin]
fitness
Settings	first compound 0.04875 µg/mL	first compound 0.0975 µg/mL	first compound 0.195 µg/mL
[1], partner 0.39 µg/mL	0.758	0.65	0.551
[1], partner 0.78 µg/mL	0.787	0.705	0.539
[1], partner 1.56 µg/mL	0.772	0.678	0.586
[2], partner 0.39 µg/mL	0.925	0.95	0.938
[2], partner 0.78 µg/mL	0.969	0.945	0.956
[2], partner 1.56 µg/mL	0.951	0.98	0.983

fitness, [1], one replicate
Settings	first compound 1.562 µg/mL	first compound 3.125 µg/mL	first compound 6.25 µg/mL
partner 0.39 µg/mL	0.348	0.268	0.25
partner 0.78 µg/mL	0.369	0.288	0.286
partner 1.56 µg/mL	0.362	0.312	0.253

Settings	Bliss interaction score
[3]	0.1
[4]	0.127
[5]	0.0321
[6]	0.0887
